Legend:
[1] = biological target: GDP-bound KRAS protein (aa 1-169), containing both G12D and C118A amino acid substitutions (Homo sapiens, UniProt P01116, C118A/G12D); assay: KRAS G12D Coupled Nucleotide Exchange Assay; type: biochemical; details: 2 h compound pre-incubation
Procedure: Following compound pre-incubation, purified SOS protein (aa 564-1049) and GTP (Roche 10106399001) were added to the assay wells and incubated for an additional 30 min. […] The assay plates were then read on a PerkinElmer EnVision Multilabel Reader, using AlphaScreen® technology, and data were analyzed using a 4-parameter logistic model to calculate IC50 values.

[2] = test system: Phosphorylation of ERK1/2 in AsPC-1 cells; assay: Phospho-ERK1/2 MSD Assay (AsPC-1 cells); type: cell-based; details: Homo sapiens, ASPC1, 2 h, 2 hours treatment, read-out: p-ERK (AsPC-1 cells) IC50
Procedure: (§1) AsPC-1 (ATCC® CRL-1682™) cells were cultured in RPMI 1640 Medium (ThermoFisher Scientific 11875093) containing 10% fetal bovine serum (ThermoFisher Scientific 16000044) and 1× penicillin-streptomycin-glutamine (ThermoFisher Scientific 10378016). Sixteen hours prior to compound treatment, AsPC-1 cells were seeded in 96-well cell culture plates at a density of 25,000 cells/well and incubated at 37° C., 5% CO2. A compound dose-response titration was diluted in growth media, added to appropriate wells of a cell culture plate, and then incubated at 37° C., 5% CO2 for 2 hours. Following compound treatment, cells were washed with ice-cold Dulbecco's phosphate-buffered saline, no Ca^2+ or Mg^2+ (ThermoFisher Scientific 14190144), and then lysed in RIPA buffer (50 mM Tris-HCl pH 7.5, 1% Igepal, 0.5% sodium deoxycholate, 150 mM NaCl, and 0.5% sodium dodecyl sulfate) containing protease inhibitors (Roche 4693132001) and phosphatase inhibitors (Roche 4906837001). Phosphorylation of ERK1/2 in compound-treated lysates was assayed using Phospho-ERK1/2 Whole Cell Lysate kits (Meso Scale Discovery K151DWD) according to the manufacturer's protocol. Assay plates were read on a Meso Scale Discovery Sector Imager 6000, and data were analyzed using a 4-parameter logistic model to calculate IC50 values.

[3] = biological target: His-tagged KRAS G12D protein (Homo sapiens, UniProt P01116, G12D); assay: KRAS G12D TR-FRET Assay; type: binding
His-tagged KRAS G12D protein, sequence (P01116 1-188 isoform P01116-2 G12D): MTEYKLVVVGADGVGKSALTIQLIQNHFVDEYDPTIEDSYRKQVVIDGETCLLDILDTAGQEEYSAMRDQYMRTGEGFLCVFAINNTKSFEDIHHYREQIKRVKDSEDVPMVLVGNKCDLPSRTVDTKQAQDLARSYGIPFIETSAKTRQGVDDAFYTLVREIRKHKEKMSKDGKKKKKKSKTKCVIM
Procedure: Compounds of interest were prepared in a dose-response titration in DMSO, and 80 nL were added via Labcyte Echo to each well of a 384-well plate (Perkin Elmer 6008280). […] The plate was incubated for 30 minutes at room temperature. Biotinylated KRPep-2d substrate (Amgen) was diluted to 20 nM in Assay Buffer and 2 μL was added to all wells and incubated for 1 h at room temperature. Detection Reagent (0.4 nM LANCE Eu-W1024 Anti-6xHis (Perkin Elmer AD0401), 5 nM streptavidin-d2 (Cisbio 610SADLA)) was prepared in Assay Buffer, then 4 μL was added to the plate and incubated for 1 h at room temperature. Plates were read using PerkinElmer EnVision (ex: 320 nm, em1: 665 nm, em2: 615 nm) and em1/em2 data was used to generate curve fits using a 4-parameter logistic model to calculate IC50 values.

[4] = test system: Phosphorylation of ERK1/2 in A-427 cells; assay: Phospho-ERK1/2 MSD Assay (A-427 cells); type: cell-based; details: Homo sapiens, A-427, 2 h, 2 h treatment, read-out: p-ERK (A427 cells) IC50
Procedure: as §1, with “A-427” for “AsPC-1”, “HTB-53™)” for “CRL-1682™)”, “h.” for “hours.”

GDP-bound KRAS protein (aa 1-169), containing both G12D and C118A amino acid substitutions, sequence (P01116 1-169 isoform P01116-2 G12D/C118A): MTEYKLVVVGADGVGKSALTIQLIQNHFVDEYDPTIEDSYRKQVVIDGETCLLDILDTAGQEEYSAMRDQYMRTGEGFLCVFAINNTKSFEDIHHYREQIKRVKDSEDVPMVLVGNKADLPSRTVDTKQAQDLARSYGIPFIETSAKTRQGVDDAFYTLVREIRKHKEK

Row | Compound | Avg 2 h Coupled Exchange IC50 [1] | IC50 [2] | IC50 [3] | IC50 [4]
1 | CCc1c(F)ccc2cc(O)cc(-c3c(F)cc4c(N5C[C@H]6CC[C@@H](C5)N6)nc(OCC(C)(C)O)nc4c3F)c12 [Example 65, 4-(4-((1R,5S)-3,8-diazabicyclo[3.2. 1]octan-3-yl)-6,8-difluoro-2-(2-hydroxy-2-methylpropoxy)quinazolin-7-yl)-5-ethyl-6-fluoronaphthalen-2-ol] | 8 nM | 547 nM | 7 nM | 699 nM
2 | Oc1cc(-c2ccc3c(N4C[C@H]5CC[C@@H](C4)N5)nc(OC[C@@]45CCCN4C[C@H](F)C5)nc3c2F)c2c(F)cccc2c1 [Example 141, 4-(4-((1R,5S)-3,8-diazabicyclo[3.2.1]octan-3-yl)-8-fluoro-2-(((2R,7aS)-2-fluorotetrahydro-1H-pyrrolizin-7a(5H)-yl)methoxy)quinazolin-7-yl)-5-fluoronaphthalen-2-ol] | 1 nM | 93 nM | 2 nM | 10 nM
3 | CCc1c(F)ccc2cc(O)cc(-c3c(F)cc4c(N5CC6CCC(C5)N6)nc(OCC56CCCN5C[C@H](F)C6)nc4c3F)c12 (atropisomer, axis not shown; (M)) [Example 232, (M)-4-(4-((1R,5S)-3,8-diazabicyclo[3.2.1]octan-3-yl)-6,8-difluoro-2-(((2R,7aS)-2-fluorotetrahydro-1H-pyrrolizin-7a(5H)-yl)methoxy)quinazolin-7-yl)-5-ethyl-6-fluoronaphthalen-2-ol] | 2 nM | 8 nM | 1 nM | 3 nM
4 | CCc1c(F)ccc2cc(O)cc(-c3cc4nc(OC[C@@]56CCCN5C[C@H](F)C6)nc(N5C[C@H]6CC[C@@H](C5)N6)c4cc3N)c12 [Example 203, 4-(6-Amino-4-((1R,5S)-3,8-diazabicyclo[3.2.1]octan-3-yl)-2-(((2R,7aS)-2-fluorotetrahydro-1H-pyrrolizin-7a(5H)-yl)methoxy)quinazolin-7-yl)-5-ethyl-6-fluoronaphthalen-2-ol] | 2 nM | 171 nM | 6 nM | 62 nM
5 | Oc1cc(Cl)c(C2CC2)c(-c2c(F)cc3c(N4C[C@H]5CC[C@@H](C4)N5)nc(OC[C@@]45CCCN4C[C@H](F)C5)nc3c2F)c1 [Example 144, 3-(4-((1R,5S)-3,8-diazabicyclo[3.2.1]octan-3-yl)-6,8-difluoro-2-(((2R,7aS)-2-fluorotetrahydro-1H-pyrrolizin-7a(5H)-yl)methoxy)quinazolin-7-yl)-5-chloro-4-cyclopropylphenol] | 3 nM | 41 nM | 3 nM | 23 nM
6 | CCc1cccc2cccc(-c3ccc4c(N5C[C@H]6CC[C@@H](C5)N6)nc(OC[C@@]56CCCN5C[C@H](F)C6)nc4c3F)c12 [Example 54, 4-((1R,5S)-3,8-diazabicyclo[3.2. 1]octan-3-yl)-7-(8-ethylnaphthalen-1-yl)-8-fluoro-2-(((2R,7aS)-2-fluorotetrahydro-1H-pyrrolizin-7a(5H)-yl)methoxy) quinazoline] | 3 nM | 1220 nM | 4 nM | 795 nM
7 | Oc1cc(-c2ccc3c(N4[C@@H]5CC[C@H]4CNC5)nc(OC[C@@]45CCCN4C[C@H](F)C5)nc3c2F)c2ccccc2c1 [Example 1, 4-(4-((1R,5S)-3,8-Diazabicyclo[3.2.1]octan-8-yl)-8-fluoro-2-(((2R,7aS)-2-fluorotetrahydro-1H-pyrrolizin-7a(5H)-yl)methoxy)quinazolin-7-yl)naphthalen-2-ol] | 3 nM | 420 nM | 4 nM | 171 nM
8 | N#Cc1cccc2cc(O)cc(-c3ccc4c(N5C[C@H]6CC[C@@H](C5)N6)nc(OC[C@@]56CCCN5C[C@H](F)C6)nc4c3F)c12 [Example 205, 8-(4-((1R,5S)-3,8-Diazabicyclo[3.2.1]octan-3-yl)-8-fluoro-2-(((2R,7aS)-2-fluorotetrahydro-1H-pyrrolizin-7a(5H)-yl)methoxy)quinazolin-7-yl)-6-hydroxy-1-naphthonitrile] | 7 nM | 293 nM | 6 nM | 71 nM
9 | CCc1c(F)ccc2cc(O)cc(-c3ccc4c(N5C[C@H]6COC[C@@H](C5)N6)nc(OC[C@@]56CCCN5C[C@H](F)C6)nc4c3F)c12 [Example 138, 4-(4-((1R,5S)-3-oxa-7,9-diazabicyclo[3.3.1]nonan-7-yl)-8-fluoro-2-(((2R,7aS)-2-fluorotetrahydro-1H-pyrrolizin-7a(5H)-yl)methoxy)quinazolin-7-yl)-5-ethyl-6-fluoronaphthalen-2-ol] | 4 nM | 216 nM | 3 nM | 72 nM
10 | CCc1cccc2cc(O)cc(-c3c(Cl)cc4c(N5C[C@@H]6CC[C@H]5CN6)nc(OC[C@@]56CCCN5C[C@H](F)C6)nc4c3F)c12 [Example 130, 4-(4-((1S,4S)-2,5-diazabicyclo[2.2.2]octan-2-yl)-6-chloro-8-fluoro-2-(((2R,7aS)-2-fluorotetrahydro-1H-pyrrolizin-7a(5H)-yl)methoxy)quinazolin-7-yl)-5-ethylnaphthalen-2-ol] | 5 nM | 102 nM | 3 nM | 52 nM
11 | Oc1cc(-c2c(F)cc3c(N4[C@@H]5CC[C@H]4CNC5)nc(OC[C@@]45CCCN4C[C@H](F)C5)nc3c2F)c2c(F)c(F)ccc2c1 [Example 148, 4-(4-((1R,5S)-3,8-diazabicyclo[3.2.1]octan-8-yl)-6,8-difluoro-2-(((2R,7aS)-2-fluorotetrahydro-1H-pyrrolizin-7a(5H)-yl)methoxy)quinazolin-7-yl)-5,6-difluoronaphthalen-2-ol] | 2 nM | 143 nM | 2 nM | 83 nM
12 | Oc1cc(-c2c(F)cc3c(N4[C@@H]5CC[C@H]4CNC5)nc(OC[C@@]45CCCN4C[C@H](F)C5)nc3c2F)c2ccccc2c1 [Example 12, 4-(4-((1R,5S)-3,8-diazabicyclo[3.2. 1]octan-8-yl)-6,8-difluoro-2-(((2R,7aS)-2-fluorotetrahydro-1H-pyrrolizin-7a(5H)-yl)methoxy)quinazolin-7-yl)naphthalen-2-ol] |  | 293 nM |  | 90 nM
13 | Oc1cc(-c2c(F)cc3c(N4C[C@H]5CC[C@@H](C4)N5)nc(OC[C@]45CCCN4C[C@H](F)C5)nc3c2F)c2ccccc2c1 [Example 43, 4-(4-((1R,5S)-3,8-diazabicyclo[3.2. 1]octan-3-yl)-6,8-difluoro-2-(((2R,7aR)-2-fluorotetrahydro-1H-pyrrolizin-7a(5H)-yl)methoxy)quinazolin-7-yl)naphthalen-2-ol] |  | 90 nM |  | 16 nM
14 | Oc1cc(-c2c(F)cc3c(N4C[C@H]5CC[C@@H](C4)N5)nc(OC[C@@]45CCCN4C[C@H](F)C5)nc3c2F)c2ccccc2c1 [Example 47, 4-(4-((1R,5S)-3,8-diazabicyclo[3.2. 1]octan-3-yl)-6,8-difluoro-2-(((2R,7aS)-2-fluorotetrahydro-1H-pyrrolizin-7a(5H)-yl)methoxy)quinazolin-7-yl)naphthalen-2-ol] |  |  |  | 11 nM
